# In PubChem BioAssay AID1963428 (Molecular Pharmacology Branch, DTP, NCI, 2024):
# pIC50: −log10 of the molar value. “And” between values parts separate entries of the source, which are not always exact repeats. Equal entries are not always repeated.
# System: 171881-019-R-J1-PDC complex spheroid growth, % test/control
# Experiment: Anticancer human tumor 171881-019-R-J1-PDC patient-derived invasive breast carcinoma cell line growth inhibition [Asc]
# Conditions: for viability, T/C: stronger effect = lower value
# Method in brief: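 Concentration series start at each agent's clinical Cmax, or at 10 microM when none is established, and drop in half-log steps; agents are applied alone or together to complex spheroids built with HUVEC and hMSC.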
# [1] = curve of first compound, second compound 0.1 µM
# [2] = curve of first compound, second compound 0.316 µM
# [3] = curve of first compound, second compound 1 µM
# [4] = second compound 0.1 µM, first compound 0.0316 µM
# [5] = second compound 0.1 µM, first compound 0.1 µM
# [6] = second compound 0.316 µM, first compound 0.0316 µM
# [7] = second compound 0.316 µM, first compound 0.1 µM
# [8] = second compound 1 µM, first compound 0.0316 µM
# [9] = second compound 1 µM, first compound 0.1 µM
# 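For viability, T/C in this document: spheroids exposed to compounds for 7 days.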
structure (smiles),measurement,setting,value
C=C(F)C(=O)N1CCN(c2nc(OCC3CCCN3C)nc3c2CCN(c2cccc4cccc(Cl)c24)C3)CC1CC#N (centres undefined) + CCN1C(C(=O)NC23CCC(C(=O)O)(CC2)CC3)C(c2cccc(Cl)c2F)C2(C(=O)Nc3cc(Cl)ccc32)C12CCCCC2,pIC50,"curve of first compound, second compound 0.03 µM",5.22
same,pIC50,"curve of first compound, second compound 0.0949 µM",5.23
same,pIC50,"curve of first compound, second compound 0.3 µM",5.21
same,pIC50,"curve of first compound, second compound 0.949 µM",5.24
same,pIC50,"curve of first compound, second compound 3 µM",5.22
same,"viability, T/C","second compound 0.03 µM, first compound 0.0316 µM",107%
same,"viability, T/C","second compound 0.03 µM, first compound 0.1 µM",105%
same,"viability, T/C","second compound 0.03 µM, first compound 0.316 µM",104%
same,"viability, T/C","second compound 0.03 µM, first compound 1 µM",110%
same,"viability, T/C","second compound 0.03 µM, first compound 3.16 µM",122%
same,"viability, T/C","second compound 0.03 µM, first compound 10 µM",1.23%
same,"viability, T/C","second compound 0.0949 µM, first compound 0.0316 µM",99.9%
same,"viability, T/C","second compound 0.0949 µM, first compound 0.1 µM",107%
same,"viability, T/C","second compound 0.0949 µM, first compound 0.316 µM",112%
same,"viability, T/C","second compound 0.0949 µM, first compound 1 µM",108%
same,"viability, T/C","second compound 0.0949 µM, first compound 3.16 µM",110%
same,"viability, T/C","second compound 0.0949 µM, first compound 10 µM",0.23%
same,"viability, T/C","second compound 0.3 µM, first compound 0.0316 µM",117%
same,"viability, T/C","second compound 0.3 µM, first compound 0.1 µM",105%
same,"viability, T/C","second compound 0.3 µM, first compound 0.316 µM",112%
same,"viability, T/C","second compound 0.3 µM, first compound 1 µM",120%
same,"viability, T/C","second compound 0.3 µM, first compound 3.16 µM",141%
same,"viability, T/C","second compound 0.3 µM, first compound 10 µM",0.58%
same,"viability, T/C","second compound 0.949 µM, first compound 0.0316 µM",118%
same,"viability, T/C","second compound 0.949 µM, first compound 0.1 µM",120%
same,"viability, T/C","second compound 0.949 µM, first compound 0.316 µM",108%
same,"viability, T/C","second compound 0.949 µM, first compound 1 µM",111%
same,"viability, T/C","second compound 0.949 µM, first compound 3.16 µM",104%
same,"viability, T/C","second compound 0.949 µM, first compound 10 µM",0.88%
same,"viability, T/C","second compound 3 µM, first compound 0.0316 µM",108%
same,"viability, T/C","second compound 3 µM, first compound 0.1 µM",103%
same,"viability, T/C","second compound 3 µM, first compound 0.316 µM",107%
same,"viability, T/C","second compound 3 µM, first compound 1 µM",113%
same,"viability, T/C","second compound 3 µM, first compound 3.16 µM",128%
same,"viability, T/C","second compound 3 µM, first compound 10 µM",0.37%
NC1CCC(NC2CC2c2ccccc2)CC1 (centres undefined) + CNC(C)C(=O)NC1CN(S(=O)(=O)c2cccc(S(=O)(=O)N3CCC4CCC(C(=O)NC(c5ccccc5)c5ccccc5)N4C(=O)C(NC(=O)C(C)NC)C3)c2)CCC2CCC(C(=O)NC(c3ccccc3)c3ccccc3)N2C1=O,pIC50,"curve of first compound, second compound 0.01 µM",< 7.00
same,pIC50,"curve of first compound, second compound 0.0316 µM",< 7.00
same,pIC50,[1],< 7.00
same,pIC50,[2],< 7.00
same,pIC50,[3],< 7.00
same,"viability, T/C","second compound 0.01 µM, first compound 0.000316 µM",94.2%
same,"viability, T/C","second compound 0.01 µM, first compound 0.001 µM",86.1%
same,"viability, T/C","second compound 0.01 µM, first compound 0.00316 µM",82.1%
same,"viability, T/C","second compound 0.01 µM, first compound 0.01 µM",87.2%
same,"viability, T/C","second compound 0.01 µM, first compound 0.0316 µM",83.9%
same,"viability, T/C","second compound 0.01 µM, first compound 0.1 µM",81%
same,"viability, T/C","second compound 0.0316 µM, first compound 0.000316 µM",89.9%
same,"viability, T/C","second compound 0.0316 µM, first compound 0.001 µM",91.5%
same,"viability, T/C","second compound 0.0316 µM, first compound 0.00316 µM",100%
same,"viability, T/C","second compound 0.0316 µM, first compound 0.01 µM",84.9%
same,"viability, T/C","second compound 0.0316 µM, first compound 0.0316 µM",79.5%
same,"viability, T/C","second compound 0.0316 µM, first compound 0.1 µM",79.9%
same,"viability, T/C","second compound 0.1 µM, first compound 0.000316 µM",103%
same,"viability, T/C","second compound 0.1 µM, first compound 0.001 µM",103%
same,"viability, T/C","second compound 0.1 µM, first compound 0.00316 µM",85.4%
same,"viability, T/C","second compound 0.1 µM, first compound 0.01 µM",79.1%
same,"viability, T/C",[4],91.8%
same,"viability, T/C",[5],91.8%
same,"viability, T/C","second compound 0.316 µM, first compound 0.000316 µM",90.4%
same,"viability, T/C","second compound 0.316 µM, first compound 0.001 µM",86.9%
same,"viability, T/C","second compound 0.316 µM, first compound 0.00316 µM",84.2%
same,"viability, T/C","second compound 0.316 µM, first compound 0.01 µM",95.9%
same,"viability, T/C",[6],85.3%
same,"viability, T/C",[7],81.2%
same,"viability, T/C","second compound 1 µM, first compound 0.000316 µM",91.5%
same,"viability, T/C","second compound 1 µM, first compound 0.001 µM",96.6%
same,"viability, T/C","second compound 1 µM, first compound 0.00316 µM",87.9%
same,"viability, T/C","second compound 1 µM, first compound 0.01 µM",85.2%
same,"viability, T/C",[8],92.8%
same,"viability, T/C",[9],86%
O=C(c1cc(Cc2n[nH]c(=O)c3ccccc23)ccc1F)N1CCN(C(=O)C2CC2)CC1,"viability, T/C",compound 0.0316 µM,88.5% and 96.6% and 106%
same,"viability, T/C",compound 0.1 µM,90.8% and 103% and 111%
same,"viability, T/C",compound 0.316 µM,93.1% and 101% and 107%
same,"viability, T/C",compound 1 µM,95.5% and 86% and 102%
same,"viability, T/C",compound 3.16 µM,87.9% and 87.8% and 107%
same,"viability, T/C",compound 10 µM,92.6% and 79.8% and 122%
same,pIC50,curve of compound,< 5.00
O=C(c1cc(Cc2n[nH]c(=O)c3ccccc23)ccc1F)N1CCN(C(=O)C2CC2)CC1 + Cc1c(S(C)(=O)=O)c(-c2cc(F)cc(N3CCN(c4ccc(NS(=O)(=O)c5ccc(NC(CCN6CCC(C(=O)OCCCP(=O)(O)O)CC6)CSc6ccccc6)c(S(=O)(=O)C(F)(F)F)c5)cc4)CC3)c2)c(-c2ccc(Cl)cc2)n1C(C)C,pIC50,[1],< 5.00
same,pIC50,[2],< 5.00
same,pIC50,[3],< 5.00
same,pIC50,"curve of first compound, second compound 3.16 µM",< 5.00
same,pIC50,"curve of first compound, second compound 10 µM",< 5.00
same,"viability, T/C",[4],106%
same,"viability, T/C",[5],102%
same,"viability, T/C","second compound 0.1 µM, first compound 0.316 µM",103%
same,"viability, T/C","second compound 0.1 µM, first compound 1 µM",124%
same,"viability, T/C","second compound 0.1 µM, first compound 3.16 µM",102%
same,"viability, T/C","second compound 0.1 µM, first compound 10 µM",111%
same,"viability, T/C",[6],136%
same,"viability, T/C",[7],125%
same,"viability, T/C","second compound 0.316 µM, first compound 0.316 µM",134%
same,"viability, T/C","second compound 0.316 µM, first compound 1 µM",125%
same,"viability, T/C","second compound 0.316 µM, first compound 3.16 µM",127%
same,"viability, T/C","second compound 0.316 µM, first compound 10 µM",134%
same,"viability, T/C",[8],132%
same,"viability, T/C",[9],136%
same,"viability, T/C","second compound 1 µM, first compound 0.316 µM",143%
same,"viability, T/C","second compound 1 µM, first compound 1 µM",168%
same,"viability, T/C","second compound 1 µM, first compound 3.16 µM",169%
same,"viability, T/C","second compound 1 µM, first compound 10 µM",180%
same,"viability, T/C","second compound 3.16 µM, first compound 0.0316 µM",158%
same,"viability, T/C","second compound 3.16 µM, first compound 0.1 µM",200%
same,"viability, T/C","second compound 3.16 µM, first compound 0.316 µM",193%
same,"viability, T/C","second compound 3.16 µM, first compound 1 µM",164%
same,"viability, T/C","second compound 3.16 µM, first compound 3.16 µM",197%
same,"viability, T/C","second compound 3.16 µM, first compound 10 µM",184%
same,"viability, T/C","second compound 10 µM, first compound 0.0316 µM",212%
same,"viability, T/C","second compound 10 µM, first compound 0.1 µM",208%
same,"viability, T/C","second compound 10 µM, first compound 0.316 µM",228%
same,"viability, T/C","second compound 10 µM, first compound 1 µM",227%
same,"viability, T/C","second compound 10 µM, first compound 3.16 µM",209%
same,"viability, T/C","second compound 10 µM, first compound 10 µM",175%
NC1CCC(NC2CC2c2ccccc2)CC1 (centres undefined),"viability, T/C",compound 0.000316 µM,97.1% and 106% and 92%
same,"viability, T/C",compound 0.001 µM,87.7% and 98.6% and 88.7%
same,"viability, T/C",compound 0.00316 µM,94.6% and 94.2% and 80.9%
same,"viability, T/C",compound 0.01 µM,92.8% and 95.6% and 87.6%
same,"viability, T/C",compound 0.0316 µM,76.2% and 94.8% and 77.5%
same,"viability, T/C",compound 0.1 µM,75.7% and 109% and 79.7%
same,pIC50,curve of compound,< 7.00
